Key:
[1] = test system: CHIcisR OVCA cell line; experiment: CellTiter-Blue cell viability assay, CHIcisR; type: cell-based; conditions: Homo sapiens; CHIcisR cells, 72 hours, growth/viability
Source text: (§1) OVCA cell lines were obtained from the American Type Culture Collection (Manassas, Va.; CAOV3, OV90, OVCAR3, SKOV3), from the European Collection of Cell Cultures (Salisbury, UK; A2780CP, A2780S), from Kyoto University (Kyoto, Japan; CHI, CHIcisR, M41, M41CSR, Tyknu, and TyknuCisR), or as kind gifts (A2008, C13, CAOV2, HeyA8, IGR-OV1, IMCC3, IMCC5, MCAS, OV2008, OVCA420, OVCA429, OVCA432, OVCA433, FUOV1, PEO1, PEO4, SK-OV-6, T8, TOV-112D, TOV-21-G, Dov13, BG1, Ovary1847, OVCAR10, OVCAR8, OVCAR5, OVCAR4, OVCAR2, SK-OV-4). Cell lines were maintained in RPMI 1640 medium (Invitrogen, Carlsbad, Calif.) supplemented with 10% fetal bovine serum (Fisher Scientific, Pittsburgh, Pa.), 1% sodium pyruvate, 1% penicillin/streptomycin (Cellgro, Manassas, Va.), and 1% nonessential amino acids (HyClone, Hudson, N.H.). Mycoplasma testing was performed every 6 months, in accordance with the manufacturer's protocol (Lonza, Rockland, Me.).
(§2) Drug activity was evaluated using a high-throughput CellTiter-Blue® cell viability assay. […] Fluorescence was read at 579-nm excitation/584-nm emission using a Synergy™ 4 microplate reader (Bio-Tek Instruments, Inc., Winooski, Vt.). IC50 values were determined using a sigmoidal equilibrium model fit (XLfit 5.2, ID Business Solutions Ltd.). […]

[2] = test system: A2008 OVCA cell line; experiment: CellTiter-Blue cell viability assay, A2008; type: cell-based; conditions: Homo sapiens; A2008 cells, 72 hours, growth/viability
Source text: as §1, §2

[3] = test system: IMCC5 OVCA cell line; experiment: CellTiter-Blue cell viability assay, IMCC5; type: cell-based; conditions: Homo sapiens; IMCC5 cells, 72 hours, growth/viability
Source text: as §1, §2

[4] = test system: OVCAR10 OVCA cell line; experiment: CellTiter-Blue cell viability assay, OVCAR10; type: cell-based; conditions: Homo sapiens; OVCAR10 cells, 72 hours, growth/viability
Source text: as §1, §2

[5] = test system: OVCAR4 OVCA cell line; experiment: CellTiter-Blue cell viability assay, OVCAR4; type: cell-based; conditions: Homo sapiens, OVCAR-4; OVCAR4 cells, 72 hours, growth/viability
Source text: as §1, §2

[6] = test system: OVCAR8 OVCA cell line; experiment: CellTiter-Blue cell viability assay, OVCAR8; type: cell-based; conditions: Homo sapiens, OVCAR-8; OVCAR8 cells, 72 hours, growth/viability
Source text: as §1, §2

[7] = test system: CAOV3 OVCA cell line; experiment: CellTiter-Blue cell viability assay, CAOV3; type: cell-based; conditions: Homo sapiens, Caov-3; CAOV3 cells, 72 hours, growth/viability
Source text: as §1, §2

[8] = test system: TOV-112D OVCA cell line; experiment: CellTiter-Blue cell viability assay, TOV-112D; type: cell-based; conditions: Homo sapiens, TOV112D; TOV-112D cells, 72 hours, growth/viability
Source text: as §1, §2

[9] = test system: OVCA429 OVCA cell line; experiment: CellTiter-Blue cell viability assay, OVCA429; type: cell-based; conditions: Homo sapiens; OVCA429 cells, 72 hours, growth/viability
Source text: as §1, §2

[10] = test system: OVCA432 OVCA cell line; experiment: CellTiter-Blue cell viability assay, OVCA432; type: cell-based; conditions: Homo sapiens; OVCA432 cells, 72 hours, growth/viability
Source text: as §1, §2

[11] = test system: patients with recurrent OVCA; conditions: 800-1250 mg/m^2/week, Phase II and III studies; cited from earlier work
[12] = test system: OVCAR5 OVCA cell line; experiment: CellTiter-Blue cell viability assay, OVCAR5; type: cell-based; conditions: Homo sapiens, OVCAR-5; OVCAR5 cells, 72 hours, growth/viability
Source text: as §1, §2

[13] = test system: OVCAR2 OVCA cell line; experiment: CellTiter-Blue cell viability assay, OVCAR2; type: cell-based; conditions: Homo sapiens; OVCAR2 cells, 72 hours, growth/viability
Source text: as §1, §2

[14] = test system: IGR-OV1 OVCA cell line; experiment: CellTiter-Blue cell viability assay, IGR-OV1; type: cell-based; conditions: Homo sapiens, IGROV-1; IGR-OV1 cells, 72 hours, growth/viability
Source text: as §1, §2

[15] = test system: Tyknu OVCA cell line; experiment: CellTiter-Blue cell viability assay, Tyknu; type: cell-based; conditions: Homo sapiens; Tyknu cells, 72 hours, growth/viability
Source text: as §1, §2

[16] = test system: OVCAR3 OVCA cell line; experiment: CellTiter-Blue cell viability assay, OVCAR3; type: cell-based; conditions: Homo sapiens, OVCAR-3; OVCAR3 cells, 72 hours, growth/viability
Source text: as §1, §2

[17] = test system: SK-OV-6 OVCA cell line; experiment: CellTiter-Blue cell viability assay, SK-OV-6; type: cell-based; conditions: Homo sapiens; SK-OV-6 cells, 72 hours, growth/viability
Source text: as §1, §2

[18] = test system: Ovary1847 OVCA cell line; experiment: CellTiter-Blue cell viability assay, Ovary1847; type: cell-based; conditions: Homo sapiens; Ovary1847 cells, 72 hours, growth/viability
Source text: as §1, §2

[19] = test system: A2780S OVCA cell line; experiment: CellTiter-Blue cell viability assay, A2780S; type: cell-based; conditions: Homo sapiens; A2780S cells, 72 hours, growth/viability
Source text: as §1, §2

[20] = test system: BG1 OVCA cell line; experiment: CellTiter-Blue cell viability assay, BG1; type: cell-based; conditions: Homo sapiens, BG-1; BG1 cells, 72 hours, growth/viability
Source text: as §1, §2

[21] = test system: PEO4 OVCA cell line; experiment: CellTiter-Blue cell viability assay, PEO4; type: cell-based; conditions: Homo sapiens; PEO4 cells, 72 hours, growth/viability
Source text: as §1, §2

[22] = test system: CHI OVCA cell line; experiment: CellTiter-Blue cell viability assay, CHI; type: cell-based; conditions: Homo sapiens; CHI cells, 72 hours, growth/viability
Source text: as §1, §2

[23] = test system: M41 OVCA cell line; experiment: CellTiter-Blue cell viability assay, M41; type: cell-based; conditions: Homo sapiens; M41 cells, 72 hours, growth/viability
Source text: as §1, §2

[24] = test system: TOV-21G OVCA cell line; experiment: CellTiter-Blue cell viability assay, TOV-21G; type: cell-based; conditions: Homo sapiens, TOV21G; TOV-21G cells, 72 hours, growth/viability
Source text: as §1, §2

[25] = test system: Dov13 OVCA cell line; experiment: CellTiter-Blue cell viability assay, Dov13; type: cell-based; conditions: Homo sapiens; Dov13 cells, 72 hours, growth/viability
Source text: as §1, §2

[26] = test system: A2780CP OVCA cell line; experiment: CellTiter-Blue cell viability assay, A2780CP; type: cell-based; conditions: Homo sapiens, A2780C/P; A2780CP cells, 72 hours, growth/viability
Source text: as §1, §2

[27] = test system: SK-OV-4 OVCA cell line; experiment: CellTiter-Blue cell viability assay, SK-OV-4; type: cell-based; conditions: Homo sapiens; SK-OV-4 cells, 72 hours, growth/viability
Source text: as §1, §2

[28] = test system: HeyA8 OVCA cell line; experiment: CellTiter-Blue cell viability assay, HeyA8; type: cell-based; conditions: Homo sapiens, HEY A8; HeyA8 cells, 72 hours, growth/viability
Source text: as §1, §2

[29] = test system: TyknuCisR OVCA cell line; experiment: CellTiter-Blue cell viability assay, TyknuCisR; type: cell-based; conditions: Homo sapiens; TyknuCisR cells, 72 hours, growth/viability
Source text: as §1, §2

[30] = test system: OV90 OVCA cell line; experiment: CellTiter-Blue cell viability assay, OV90; type: cell-based; conditions: Homo sapiens, OV-90; OV90 cells, 72 hours, growth/viability
Source text: as §1, §2

[31] = test system: PEO1 OVCA cell line; experiment: CellTiter-Blue cell viability assay, PEO1; type: cell-based; conditions: Homo sapiens; PEO1 cells, 72 hours, growth/viability
Source text: as §1, §2

[32] = test system: IMCC3 OVCA cell line; experiment: CellTiter-Blue cell viability assay, IMCC3; type: cell-based; conditions: Homo sapiens; IMCC3 cells, 72 hours, growth/viability
Source text: as §1, §2

[33] = test system: T8 OVCA cell line; experiment: CellTiter-Blue cell viability assay, T8; type: cell-based; conditions: Homo sapiens; T8 cells, 72 hours, growth/viability
Source text: as §1, §2

[34] = test system: FUOV1 OVCA cell line; experiment: CellTiter-Blue cell viability assay, FUOV1; type: cell-based; conditions: Homo sapiens; FUOV1 cells, 72 hours, growth/viability
Source text: as §1, §2

[35] = test system: CAOV2 OVCA cell line; experiment: CellTiter-Blue cell viability assay, CAOV2; type: cell-based; conditions: Homo sapiens; CAOV2 cells, 72 hours, growth/viability
Source text: as §1, §2

[36] = test system: SK-OV-3 OVCA cell line; experiment: CellTiter-Blue cell viability assay, SK-OV-3; type: cell-based; conditions: Homo sapiens; SK-OV-3 cells, 72 hours, growth/viability
Source text: as §1, §2

[37] = test system: OVCA420 OVCA cell line; experiment: CellTiter-Blue cell viability assay, OVCA420; type: cell-based; conditions: Homo sapiens, OVCA 420; OVCA420 cells, 72 hours, growth/viability
Source text: as §1, §2

[38] = test system: MCAS OVCA cell line; experiment: CellTiter-Blue cell viability assay, MCAS; type: cell-based; conditions: Homo sapiens; MCAS cells, 72 hours, growth/viability
Source text: as §1, §2

[39] = test system: C13 OVCA cell line; experiment: CellTiter-Blue cell viability assay, C13; type: cell-based; conditions: Homo sapiens; C13 cells, 72 hours, growth/viability
Source text: as §1, §2

[40] = test system: OV2008 OVCA cell line; experiment: CellTiter-Blue cell viability assay, OV2008; type: cell-based; conditions: Homo sapiens; OV2008 cells, 72 hours, growth/viability
Source text: as §1, §2

[41] = test system: M41CSR OVCA cell line; experiment: CellTiter-Blue cell viability assay, M41CSR; type: cell-based; conditions: Homo sapiens; M41CSR cells, 72 hours, growth/viability
Source text: as §1, §2

[42] = test system: OVCA433 OVCA cell line; experiment: CellTiter-Blue cell viability assay, OVCA433; type: cell-based; conditions: Homo sapiens; OVCA433 cells, 72 hours, growth/viability
Source text: as §1, §2

SMILES: Nc1ccn([C@@H]2O[C@H](CO)[C@@H](O)C2(F)F)c(=O)n1 [Gemcitabine, 2′,2′-difluorodeoxycytidine]
- IC50 [1]: 23.7 nM
- IC50 [2]: 164 nM
- IC50 [3]: 105 nM
- IC50 [4]: 672 nM
- IC50 [5]: 655 nM
- IC50 [6]: 273 nM
- IC50 [7]: 2.2 nM
- IC50 [8]: 44.5 µM
- IC50 [9]: 22.2 nM
- IC50 [10]: 14.9 µM
- response rates [11]: up to 19%
- IC50 [12]: 278 nM
- IC50 [13]: 22 nM
- IC50 [14]: 531 nM
- IC50 [15]: 4.6 nM
- IC50 [16]: 6.2 µM
- IC50 [17]: 3.5 µM
- IC50 [18]: 865 nM
- IC50 [19]: 51.8 nM
- IC50 [20]: 30.4 µM
- IC50 [21]: 536 nM
- IC50 [22]: 269 nM
- IC50 [23]: 39.5 nM
- IC50 [24]: 764 nM
- IC50 [25]: 6 nM
- IC50 [26]: 366 nM
- IC50 [27]: 3.3 nM
- IC50 [28]: 1500 nM
- IC50 [29]: 8.5 nM
- IC50 [30]: 18.9 nM
- IC50 [31]: 135 nM
- IC50 [32]: 943 nM
- IC50 [33]: 256 nM
- IC50 [34]: 59.4 µM
- IC50 [35]: 3.9 µM
- IC50 [36]: 16.1 µM
- IC50 [37]: 12.7 µM
- IC50 [38]: 56.4 µM
- IC50 [39]: 418 nM
- IC50 [40]: 384 nM
- IC50 [41]: 37.4 nM
- IC50 [42]: 9.9 nM

From patent publication US9809858B2, “O-glycan pathway ovarian cancer signature” (H. LEE MOFFITT CANCER CENTER AND RESEARCH INSTITUTE, INC., priority 2012, dated 2017)
